Experiment [1] concerns the target Kappa-type opioid receptor (Cavia porcellus, UniProt P41144).
In experiment [2] the target is Delta-type opioid receptor (Sus scrofa, UniProt P79291).
Sequence of Delta-type opioid receptor (P79291 whole entry): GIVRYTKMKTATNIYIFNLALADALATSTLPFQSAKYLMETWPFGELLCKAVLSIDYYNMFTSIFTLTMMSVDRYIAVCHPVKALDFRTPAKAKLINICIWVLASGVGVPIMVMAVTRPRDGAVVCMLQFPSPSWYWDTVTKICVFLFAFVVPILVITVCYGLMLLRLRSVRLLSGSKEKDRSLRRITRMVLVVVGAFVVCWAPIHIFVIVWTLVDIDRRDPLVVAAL

Sequence of Kappa-type opioid receptor (P41144 whole entry): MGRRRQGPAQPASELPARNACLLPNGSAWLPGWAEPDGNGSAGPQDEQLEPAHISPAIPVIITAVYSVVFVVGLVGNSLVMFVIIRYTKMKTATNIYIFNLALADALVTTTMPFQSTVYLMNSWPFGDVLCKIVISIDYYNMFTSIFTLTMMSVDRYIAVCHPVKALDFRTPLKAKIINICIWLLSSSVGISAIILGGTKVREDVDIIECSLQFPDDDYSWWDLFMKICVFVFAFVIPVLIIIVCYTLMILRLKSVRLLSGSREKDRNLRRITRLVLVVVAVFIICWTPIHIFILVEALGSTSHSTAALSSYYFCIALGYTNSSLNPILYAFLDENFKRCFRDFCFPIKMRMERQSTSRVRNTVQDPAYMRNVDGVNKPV

As for `C[C@@H]1[C@@H]2Cc3ccc(O)cc3[C@@]1(C)CCN2CC1CC1` [(SSS)-12-Cyclopropylmethyl-13-methyl-12-aza-tricyclo[9.1.1.0*3,8*]trideca-3(8),4,6-trien-6-ol(cyclazocine)], the inhibition constant Ki in experiment [1] is 0.18 nM; in experiment [2], 1.1 nM.
